Where a name gives a salt, the structure may show the parent alone.
target: T1, human α1D adrenergic receptor (Homo sapiens, UniProt P25100); experiment: Measurement of α1D adrenergic receptor binding inhibitory activity ([3H]-prazosin binding to membrane fraction of CHO-K1 cells expressing the receptor); conditions: compound at 1 μM; [3H]-prazosin 2.5 nM; membrane fraction 20 μg/well; room temperature, 1 hr; read-out: Binding inhibitory rate (%) (α1D adrenergic receptor binding inhibitory rate)
T1 construct: expressed in transfected cells; membrane fraction used
T1 sequence (P25100 1-572): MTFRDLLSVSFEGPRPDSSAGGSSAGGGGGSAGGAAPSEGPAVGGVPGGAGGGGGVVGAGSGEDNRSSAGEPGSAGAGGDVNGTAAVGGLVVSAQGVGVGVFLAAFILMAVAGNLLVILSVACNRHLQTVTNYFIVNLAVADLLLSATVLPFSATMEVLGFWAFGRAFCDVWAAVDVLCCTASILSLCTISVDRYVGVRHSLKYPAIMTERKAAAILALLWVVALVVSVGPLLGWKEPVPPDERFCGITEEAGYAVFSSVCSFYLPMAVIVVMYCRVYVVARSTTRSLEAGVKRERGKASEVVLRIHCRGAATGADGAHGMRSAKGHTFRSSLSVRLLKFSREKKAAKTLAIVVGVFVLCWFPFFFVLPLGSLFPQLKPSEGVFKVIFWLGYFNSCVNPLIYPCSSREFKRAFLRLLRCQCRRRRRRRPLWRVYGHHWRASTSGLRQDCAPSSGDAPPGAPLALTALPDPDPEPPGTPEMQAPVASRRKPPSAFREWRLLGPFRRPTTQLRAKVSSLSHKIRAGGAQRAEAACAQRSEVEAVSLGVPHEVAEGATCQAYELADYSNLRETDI
Procedure: Measurement of α1D Adrenergic Receptor Binding Inhibitory Activity
(i) Preparation of Human α1D Adrenergic Receptor Expression Plasmid
α1D Adrenergic Receptor Gene was Cloned from Human Liver cDNA by the PCR method. PCR reaction was performed by Gene Amp PCR System 9700 (Applied Biosystems) with 50 pmol each of the primer set 5′-[…]-3′ [SEQ ID NO: 1] and 5′-[…]-3′ [SEQ ID NO: 2] prepared in reference to the base sequence of the α1D adrenergic receptor gene reported by DEBRA A. et al. (J. Pharamacol. Exp. Ter., 272, 134-142 (1995)), 200 ng of human brain hippocampus cDNA library (Takara Shuzo Co., Ltd.) as a template and TaKaRa LA-Taq DNA Polymerase (Takara Shuzo Co., Ltd.) (reaction conditions: 45 cycles of 94° C. for 15 sec, 68° C. for 3.5 min).
The PCR fragment obtained above was digested with restriction enzymes NheI (Takara Shuzo Co., Ltd.) and Kpn I (Takara Shuzo Co., Ltd.), and applied to agarose gel electrophoresis to recover DNA fragments. The DNA fragments were ligated with animal cell expression plasmid pcDNA3.1/Zeo (Invitrogen) digested with NheI and Kpn I, by DNA Ligation Kit Ver. 2 (Takara Shuzo Co., Ltd.), and transformed the competent cells of Escherichia coli JM109 to obtain plasmid, pcDNA3.1/Zeo-Adreα1D.
(ii) Introduction of Human α1D Adrenergic Receptor Expression Plasmid into CHO-K1 Cells and Preparation of Membrane Fraction
CHO-K1 cells passage cultured in HamF12 medium (Invitrogen) containing 10% fetal bovine serum (TRACE SCIENCETIFIC) in a 150 cm^2 culture flask (Corning Coaster) were detached with 0.5 g/L trypsin-0.2 g/L EDTA (Invitrogen), and the cells were washed with D-PBS(−) (Invitrogen) and centrifuged (1000 rpm, 5 min). Then, using Gene Pulser II (BioRad), DNA was introduced into the cells under the following conditions. 1×10^7 cells suspended in D-PBS(−) (700 μl) and 10 μg of pcDNA3.1/Zeo-Adreα1D were added in a 0.4 cm gap cuvette (BioRad), and electroporation was performed under voltage 0.25 kV, capacitance 960 μF. The cells were cultured in HamF12 medium containing 10% fetal bovine serum and 250 μg/mL Zeocin (Invitrogen) and the Zeocin resistance clones were selected.
Plurality of Zeocin resistance clones were selected and cultured in a cell culture flask (150 cm^2) until semiconfluent, and the cellular membrane fraction was prepared as follows.
The semiconfluent cells were detached with 0.02% EDTA containing D-PBS(−) and recovered by centrifugation. The cells were suspended in membrane preparation buffer (10 mM NaHCO3 pH 7.4, protease inhibitor cocktail (Roche)) and disrupted by 3 times of treatment in a polytron homogenizer (model PT-3100, KINEMATICA AG) at 20000 rpm for 20 seconds. After disruption, the cells were centrifuged at 2000 rpm for 10 min and the supernatant containing membrane fractions was obtained. The supernatant was centrifuged using an ultracentrifuge (model L8-70M, rotor 70 Ti, Beckman Instruments) at 30000 rpm for 1 hr to obtain a precipitate containing membrane fractions. The obtained membrane fraction of each clone was subjected to the binding experiment shown below.
The membrane fraction (20 μg/well) and [^3H]-prazosin (2.5 nM, PerkinElmer Lifescience), as a ligand, were diluted with a binding assay buffer (50 mM Tris-HCl, 10 mM MgCl2, 0.5% BSA, protease inhibitor cocktail pH 7.5), added to a 96 well microplate, and reacted at room temperature for 1 hr. For the measurement of non-specific binding, phentolamine (Sigma) was further added to 10 μM. Then, the reaction mixture was filtered and transferred to unifilter GF/C (PerkinElmer Lifescience) by using a cell harvester (PerkinElmer Lifescience). The filter was washed 3 times with ice-cooled 50 mM Tris buffer (pH 7.5). After drying the filter, MicroScinti 0 (PerkinElmer Lifescience) was added to the filter and the radioactivity was measured by TopCount (PerkinElmer Lifescience).
(iii) Evaluation of Example Compound […]

Structure (SMILES)	inhibition at 1 µM
CC(c1cccc(Cl)c1)n1cc(Cl)cc(C(N)=O)c1=N (stereo not shown) [Example 1, 5-chloro-1-[1-(3-chlorophenyl)ethyl]-2-imino-1,2-dihydropyridine-3-carboxamide]	100%
N=c1c(C(N)=O)cc(Cl)cn1C1CCc2ccc(Cl)cc21 (stereo not shown) [Example 2, 5-chloro-1-(6-chloro-2,3-dihydro-1H-inden-1-yl)-2-imino-1,2-dihydropyridine-3-carboxamide]	102%
C[C@H](c1cccc(C#N)c1)n1cc(Cl)cc(C(N)=O)c1=N [Example 23, 5-chloro-1-[(1R)-1-(3-cyanophenyl)ethyl]-2-imino-1,2-dihydropyridine-3-carboxamide hydrochloride]	100%
N=c1c(C(N)=O)cc(Cl)cn1C1CCS(=O)(=O)c2ccc(Cl)cc21 (stereo not shown) [Example 30, 5-chloro-1-(6-chloro-1,1-dioxido-3,4-dihydro-2H-thiochromen-4-yl)-2-imino-1,2-dihydropyridine-3-carboxamide hydrochloride]	96.9%
CC(c1ccsc1)n1cc(Cl)cc(C(N)=O)c1=N (stereo not shown) [Example 5, 5-chloro-2-imino-1-(1-(thiophen-3-yl)ethyl)-1,2-dihydropyridine-3-carboxamide hydrochloride]	79.4%
C[C@H](c1cc(F)cc(F)c1)n1cc(Cl)cc(C(N)=O)c1=N [Example 14, 5-chloro-1-[(1R)-1-(3,5-difluorophenyl)ethyl]-2-imino-1,2-dihydropyridine-3-carboxamide hydrochloride]	100%
N=c1c(C(N)=O)cc(Cl)cn1C1(c2ccccc2)CC1 [Example 15, 5-chloro-2-imino-1-(1-phenylcyclopropyl)-1,2-dihydropyridine-3-carboxamide]	62%
N#Cc1ccc2c(c1)C(n1cc(Cl)cc(C(N)=O)c1=N)CC2 (stereo not shown) [Example 19, 5-chloro-1-(6-cyano-2,3-dihydro-1H-inden-1-yl)-2-imino-1,2-dihydropyridine-3-carboxamide hydrochloride]	94.8%
C[C@H](c1cccc(F)c1)n1cc(Cl)cc(C(N)=O)c1=N [Example 12, 5-chloro-1-[(1R)-1-(3-fluorophenyl)ethyl]-2-imino-1,2-dihydropyridine-3-carboxamide hydrochloride]	97%
C[C@H](c1ccc(F)cc1)n1cc(Cl)cc(C(N)=O)c1=N [Example 22, 5-chloro-1-[(1R)-1-(4-fluorophenyl)ethyl]-2-imino-1,2-dihydropyridine-3-carboxamide hydrochloride]	96.1%

Reference: patent publication US20110039892A1, “IMINOPYRIDINE DERIVATIVE AND USE THEREOF” (TAKEDA PHARMACEUTICAL COMPANY LIMITED, priority 2008, published 2011)
